Data taken from US20210332024A1, “MODULATORS OF PIN1 ACTIVITY AND USES THEREOF” (Yeda Research and Development Co. Ltd., priority 2019, published 2021).
“And” between values parts separate entries of the source, which are not always exact repeats. Identical values can stand only once. Like-named read-outs stand apart in the source and are kept apart here.

Experiments:
[1] = system: PDX (patient-derived xenograft) tumors; test: PDX orthotopic xenograft mouse model; type: in vivo; conditions: IP 2 or 4 mg/kg every day, 6 weeks
Experimental: 4×2 mm PDX (patient-derived xenograft) tumors were transplanted into NSC mouse pancreas (orthotopic xenografts). After 1 week of the transplantation, treatment of mice with Pin1-3 began. Mice were treated (IP) with Pin1-3 diluted solution (as a control), or 2 or 4 mg/kg […] every day. Tumor size were measured and mice were sacrificed after 6 weeks to collect tumor tissue (n=5).

[2] = system: MYCN-overexpressing PSNS neuroblasts; test: Zebrafish embryo model of MYCN-driven neuroblastoma; type: in vivo
From the text: Zebrafish were used for a model of childhood neuroblastoma, in which the tissue-specific overexpression of the human MYCN transgene using the dopamine β hydroxylase (dβh) promoter in the zebrafish peripheral sympathetic nerve system (PSNS) drives neuroblastoma tumorigenesis in zebrafish [Zhu et al., Cancer Cell 2012, 21:362-373]. The fish are also transgenic for a PSNS-specific dβh:EGFP reporter line, so that the tumors can be visualized by EGFP. In this model, hyperproliferation of sympathetic neuroblasts is evident in the […] (counterpart of the adrenal medulla) starting at 4 days post-fertilization (dpf).
Zebrafish embryos at 3 dpf were treated with different concentrations of the test compound in the egg water (reverse osmosis or RO water with 0.6 gm/liter instant ocean salts) for 4 days. The embryos were transferred to egg water containing freshly diluted drug after 2 days (5 dpf). The embryos were then imaged at 7 dpf, and the relative EGFP+MYCN-overexpressing neuroblast cross-sectional area for each experimental group was quantified.
The effect of Pin1-binding […] on neuroblastoma cells was assessed using a zebrafish embryo model of neuroblastoma, using procedures described in the Materials and Methods section hereinabove. Neuroblastoma is a pediatric malignancy derived from the peripheral sympathetic nervous system (PSNS). […] Overexpression of the MYCN oncogene, which is the oncogenic driver in approximately 20% of human high-risk neuroblastomas, in the PSNS of Tg(dβh:MYCN;dβh:EGFP) transgenic zebrafish, causes the fish to develop neuroblast hyperplasia (as shown, for example, in FIG. 42), which rapidly progress into fully transformed tumors that faithfully resemble human high-risk neuroblastoma [Zhu et al., Cancer Cell 2012, 21:362-373; He et al., Elife 2016, 5; Zimmerman et al., Cancer Discov 2016, 8:320-335].

GST-Pin1 = GST-Pin1 (Homo sapiens, UniProt Q13526); test: Fluorescence polarization (FP) competition assay; type: binding
Chain of GST-Pin1 (Q13526 whole entry): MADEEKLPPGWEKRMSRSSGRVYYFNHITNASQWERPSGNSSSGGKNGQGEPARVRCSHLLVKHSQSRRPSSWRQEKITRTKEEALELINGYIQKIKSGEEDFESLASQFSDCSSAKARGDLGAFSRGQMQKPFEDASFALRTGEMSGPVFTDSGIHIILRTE
Experimental: Binding affinity to Pin1 was determined using a fluorescence polarization assay to assess competition with an N-terminal fluorescein-labeled peptide (Bth-D-phosThr-Pip-Nal), which was obtained from JPT Peptide Technologies and Proteintech Group. The indicated concentrations of candidate compound were pre-incubated for 12 hours at 4° C. with a solution containing 250 nM glutathione S-transferase (GST)-Pin1, 5 nM of fluorescein-labeled peptide probe, 10 μg/ml bovine serum albumin, 0.01% Tween-20 and 1 mM DTT (dithiothreitol) in a buffer of 10 mM HEPES, 10 mM NaCl and 1% glycerol (pH 7.4). Measurements of FP were performed in black 384-well plates (Corning) using an EnVision™ reader. Apparent Ki values (under the tested conditions) obtained from the FP assay results were derived from the Kenakin Ki equation:
Kenakin Ki=(Lb)(EC50)(Kd)/(Lo)(Ro)+Lb(Ro−Lo+Lb−Kd)
Sittampalam G. S. et al., Eli Lilly & Company and the National Center for Advancing Translational Sciences, 2004].
Covalent labeling of Pin1 was confirmed to translate into enzyme inhibition via a fluorescence polarization (FP) competition assay using a FITC-labeled substrate mimetic peptide inhibitor, as well as a chymotrypsin-coupled PPIase assay, using procedures described in Wei et al. [Nat Med 2015, 21:457-466].
The fluorescent polarization assay was performed in a dose-dependent and time-dependent manner, in order to further characterize the kinetic parameters of Pin1-3 binding to Pin1.

[3] = system: wild-type 8988T pancreatic cancer cells; test: Organoid growth in Matrigel, wild-type PATU-8988T; type: cell-based; conditions: 1 μM, 9 days
Experimental: As three dimensional (3D) organoid models can reflect in vivo results better than monolayer cell culture [Baker et al., Trends Cancer Res 2016, 2:176-190], the anti-proliferative activity of Pin1-3 in PATU-8988T was further evaluated in wild-type or Pin1-knockout cells grown as organoids in Matrigel™ droplets. Cells were treated for 9 days with Pin1-3 (or Pin1-3-AcA or vehicle as a control), replenishing the compound in media every 3 days.

[4] = system: 8988T pancreatic adenocarcinoma cells; test: Prolonged-treatment cell growth, wild-type 8988T; type: cell-based; conditions: 1 μM, 6-8 days
Experimental: The ability of Pin1-3 treatment to induce more pronounced anti-proliferative effects after prolonged treatment (6-8 days) was then assessed. In order to ensure that target engagement was maintained for the duration of the experiment, Pin1-3 was replenished in fresh media every 48 hours.
The effect of Pin1-binding compounds on 8988T pancreatic adenocarcinoma cells was assessed by incubating cells with 1 μM Pin1-3, and evaluating cell growth relative to cells incubated with vehicle (DMSO) alone. In order to confirm that the effect of Pin1-3 is mediated by Pin1, the experiment was repeated using Pin1 knockout cells.

[5] = Pharmacokinetics, intravenous administration; type: in vivo, Male C57Bl/6J mice
Experimental: Male C57Bl/6J mice received Pin1-3 intravenously (as a 0.2 mg/ml solution in 5/5/90 NMP/Solutol/saline) or orally (as a 1 mg/ml solution in 5/5/90 NMP/Solutol/saline). The intravenous dosage was 2 mg/kg and the oral dosage was 10 mg/kg.

[6] = intravenous 2 mg/kg, individual mice No. 1-3, 2 mg/kg
[7] = male, C57Bl/6J, mouse, in vivo, iv, 2 mg/kg, Avg. of 3 mice
[8] = male, C57Bl/6J, mouse, in vivo, iv, 2 mg/kg, individual mice No. 1-3

CC(C)(C)CN(C(=O)CCl)C1CCS(=O)(=O)C1 (stereo not shown) [Pin1-3, 2-chloro-N-(sulfolan-3-yl)-N-neopentylacetamide]
PDX tumor growth [1]: inhibited PDX tumor growth in mice in a dose-dependent manner
Cross-section of the EGFP-expressing PSNS cells ([2]; 100 μM for 4 days): indistinguishable from that of controls without hyperproliferation
Toxicity in embryos ([2]; 25 to 100 μM in the egg water): no evidence of toxicity
Hyperproliferation of MYCN-overexpressing PSNS neuroblasts ([2]; 25 to 100 μM in the egg water, 3 to 7 dpf): suppressed the hyperproliferation of MYCN-overexpressing PSNS neuroblasts
Ki (GST-Pin1; FP assay, competition with fluorescein-labeled peptide, 250 nM GST-Pin1, read-out: Ki (apparent)): 0.11 µM
kinact (GST-Pin1; dose-dependent and time-dependent FP assay): 0.0005 s⁻¹
kinact/KI (GST-Pin1; dose-dependent and time-dependent FP assay, read-out: Kinact/Ki (apparent)): 29000 M⁻¹ s⁻¹
Organoid growth [3]: significantly retarded organoid growth
Cell viability / growth [4]: reduced pancreatic cancer cell viability
AUC % extrap. ([5]; intravenous 2 mg/kg, Avg. of 3 mice): 0.23%
AUC % extrap. [5, 6]: 0.36% and 0.17% and 0.18%
AUCINF obs. [5, 6]: 294012 ng·min/mL and 365536 ng·min/mL
AUClast [5, 6]: 293517 min*ng/ml and 17.4 hr*μM and 364891 min*ng/ml and 21.6 hr*μM
Cl obs. [5, 6]: 6.80 mL/min/kg and 5.47 mL/min/kg
Cmax [5, 6]: 1620 ng/mL and 2030 ng/mL
MRTINF obs. [5, 6]: 113 min and 109 min
T1/2 [5, 6]: 40.8 min and 43.2 min
VSS obs. [5, 6]: 0.77 L/kg and 0.60 L/kg
Cmax ([5]; intravenous 2 mg/kg, individual mice No. 1-3, 2 mg/kg, read-out: Cmax): 5.76 µM and 7.22 µM
AUC(0-t) [5, 7]: 6050 ng·h/mL and 21.5 µM·h
half-life [5, 7]: 45.6 min
AUC(0-inf) ([5]; male, C57Bl/6J, mouse, in vivo, iv, 2 mg/kg, Avg. of 3 mice, read-out: AUCINF obs. (converted)): 6070 ng·h/mL
clearance ([5]; male, C57Bl/6J, mouse, in vivo, iv, 2 mg/kg, Avg. of 3 mice, read-out: Cl obs.): 5.63 mL/min/kg
Cmax ([5]; male, C57Bl/6J, mouse, in vivo, iv, 2 mg/kg, Avg. of 3 mice, read-out: Cmax): 2090 ng/mL and 7.42 µM
MRT inf ([5]; male, C57Bl/6J, mouse, in vivo, iv, 2 mg/kg, Avg. of 3 mice, read-out: MRTINF obs.): 108 min
Vd ([5]; male, C57Bl/6J, mouse, in vivo, iv, 2 mg/kg, Avg. of 3 mice, read-out: VSS obs.): 0.61 L/kg
AUC(0-t) [5, 8]: 7190 ng·h/mL and 25.6 µM·h
half-life [5, 8]: 53.4 min
AUC(0-inf) ([5]; male, C57Bl/6J, mouse, in vivo, iv, 2 mg/kg, individual mice No. 1-3, read-out: AUCINF obs. (converted)): 7210 ng·h/mL
clearance ([5]; male, C57Bl/6J, mouse, in vivo, iv, 2 mg/kg, individual mice No. 1-3, read-out: Cl obs.): 4.62 mL/min/kg
Cmax ([5]; male, C57Bl/6J, mouse, in vivo, iv, 2 mg/kg, individual mice No. 1-3, read-out: Cmax): 2610 ng/mL and 9.28 µM
MRT inf ([5]; male, C57Bl/6J, mouse, in vivo, iv, 2 mg/kg, individual mice No. 1-3, read-out: MRTINF obs.): 102 min
Vd ([5]; male, C57Bl/6J, mouse, in vivo, iv, 2 mg/kg, individual mice No. 1-3, read-out: VSS obs.): 0.47 L/kg
Tmax ([5]; male, C57Bl/6J, mouse, in vivo, intravenous 2 mg/kg, individual mice No. 1-3): 30 min
